Data: patent US10717699B1, “Crotonyl alcohol cassic acid ester with antibacterial activity and a method of preparing the same” (SOUTHWEST UNIVERSITY, priority 2020, dated 2020)
Values after ≈ are worked out from the molar mass of the structure shown.

How the values were obtained:
Format in all cases: cell-based
[1] = tested on: multidrug-resistant Pseudomonas aeruginosa MDR-PA 18-1774,18-202; experiment: MIC by microbroth dilution method, MDR-PA strains; details: 37° C., 20-22 hours
Description: (§1) The minimal inhibitory concentration (MIC) of the compounds as determined by microbroth dilution method with gentamicin, cefazolin sodium and ceftriaxone sodium as positive control.
(§2) The experimental strains included methicillin-resistant Gram-positive bacteria: methicillin-resistant Staphylococcus aureus MRSA 18-222, 18-575; multiple drug-resistant […] bacteria: vancomycin-resistant enterococci VRE 18-80,18-94, multidrug-resistant Pseudomonas aeruginosa MDR-PA 18-1774,18-202, carbapenem-resistant Acinetobacter baumannii CR-AB 18-183,18-560. All the experimental strains were donated by Huashan Hospital affiliated to Fudan University (Institute of antibiotics, Fudan University) and used after routine identification.
(§3) Preparation of MHB medium: 20.0 g MHB medium was added to 1 L distilled water, boiled until completely dissolved, packed in conical bottles and sterilized at 121° C. for 15 min.
(§4) The experimental strain was cultured to the logarithmic growth phase: under aseptic condition, the experimental strain was inoculated into 100 mL MHB medium and incubated in a constant temperature and humidity incubator at 37° C. for 20-22 hours.
(§5) Preparation of storage solution: weigh the sample to be tested, dissolve it with 1% DMSO solution, prepare a storage solution with a concentration of 2560 μg/mL, weigh a positive reference substance, dissolve it with aseptic distilled water, and configure a storage solution with a concentration of 2560 μg/mL.
(§6) Preparation of bacterial suspension: under aseptic condition, the experimental strains cultured to logarithmic growth phase were adjusted to 0.5 MCF turbidity standard with MHB medium and diluted according to 1:10, and the bacterial suspension with concentration of 10^6 CFU/mL was prepared for standby.
(§7) Dilution of storage solution and inoculation of experimental strain: under aseptic condition, the storage solution was diluted to 256 μg/mL solution. Take a sterile 96-well plate, add 200 μL MHB medium to the 12th well, and add 100 μL MHB medium to each well. Add 100 μL of positive control solution to the first well, mix well, and suck 100 μL from it and discard. Add 100 μL of the compound sample solution to the second well, mix well, and then pipette 100 μL to the third well. After mixing, pipette 100 μL to the fourth well, and dilute to the 11th well in this way. Finally, 100 μL was pipetted from the 11th well and discarded. The 12th hole was the growth control without drugs. So far, the concentration of the positive reference substance is 128 μg/mL, the concentrations of the sample solution are 128, […], 8, 4, 2, 1, 0.5, 0.25 μg/mL respectively. Then, 10μL of the prepared bacterial suspension is added to each well, so that the final concentration of the bacterial liquid in each well is 5×10^5 CFU/mL.
(§8) Incubation: Cover the 96-well plate inoculated with the experimental strains, and incubate in a constant temperature and humidity box at 37° C. for 20-22 hours.

drug-resistant bacteria = experiment: Antibacterial activity test, summary over all experimental strains; details: summary of FIG. 1-6 and Table 1
Description: as §1, §2, §3
The experimental strain was cultured to the logarithmic growth phase: under aseptic condition, the experimental strain was inoculated into 100 mL MHB medium and incubated in a constant temperature and humidity incubator at 37° C. for 20-22 hours. […]

[2] = tested on: methicillin-resistant Staphylococcus aureus MRSA 18-222, 18-575; experiment: MIC by microbroth dilution method, MRSA strains; details: for Minimum bacteriostatic concentration: 37° C., 20-22 hours
Description: as §1, §2, §3, §4, §5, §6, §7, §8

[3] = tested on: carbapenem-resistant Acinetobacter baumannii CR-AB 18-183,18-560; experiment: MIC by microbroth dilution method, CR-AB strains; details: 37° C., 20-22 hours
Description: as §1, §2, §3, §4, §5, §6, §7, §8

[4] = tested on: vancomycin-resistant enterococci VRE 18-80,18-94; experiment: MIC by microbroth dilution method, VRE strains; details: 37° C., 20-22 hours
Description: as §1, §2, §3, §4, §5, §6, §7, §8

O=C(O)c1cc(O)c2c(c1)C(=O)c1cccc(O)c1C2=O [Cassic acid]
Minimum bacteriostatic concentration ([1]; strain MDR-PA 18-174): >128 µg/mL | Minimum bacteriostatic concentration ([1]; strain MDR-PA 18-202): >128 µg/mL | inhibitory effect on drug-resistant bacteria (drug-resistant bacteria): no inhibitory effect | Minimum bacteriostatic concentration ([2]; strain MRSA 18-222): >128 µg/mL | Minimum bacteriostatic concentration ([2]; strain MRSA 18-575): >128 µg/mL | Minimum bacteriostatic concentration ([3]; strain CR-AB 18-183): >128 µg/mL | Minimum bacteriostatic concentration ([3]; strain CR-AB 18-560): >128 µg/mL | Minimum bacteriostatic concentration ([4]; strain VRE 18-80): >128 µg/mL | Minimum bacteriostatic concentration ([4]; strain VRE 18-94): >128 µg/mL

Cc1nnc(SCC2=C(C(=O)O)N3C(=O)[C@@H](NC(=O)Cn4cnnn4)[C@H]3SC2)s1 [Cefazolin sodium, cefazolin sodium]
Minimum bacteriostatic concentration ([1]; strain MDR-PA 18-174): 8 µg/mL | Minimum bacteriostatic concentration ([1]; strain MDR-PA 18-202): 128 µg/mL | Minimum bacteriostatic concentration ([2]; strain MRSA 18-222): >128 µg/mL | Minimum bacteriostatic concentration ([2]; strain MRSA 18-575): >128 µg/mL | Minimum bacteriostatic concentration ([3]; strain CR-AB 18-183): >128 µg/mL | Minimum bacteriostatic concentration ([3]; strain CR-AB 18-560): >128 µg/mL | Minimum bacteriostatic concentration ([4]; strain VRE 18-80): 32 µg/mL | Minimum bacteriostatic concentration ([4]; strain VRE 18-94): >128 µg/mL

CO/N=C(\C(=O)N[C@@H]1C(=O)N2C(C(=O)O)=C(CSc3nc(=O)c(=O)[nH]n3C)CS[C@H]12)c1csc(N)n1 [Ceftriaxone sodium, ceftriaxone sodium]
Minimum bacteriostatic concentration ([1]; strain MDR-PA 18-174): 128 µg/mL | Minimum bacteriostatic concentration ([1]; strain MDR-PA 18-202): 16 µg/mL | Minimum bacteriostatic concentration ([2]; strain MRSA 18-222): >128 µg/mL | Minimum bacteriostatic concentration ([2]; strain MRSA 18-575): >128 µg/mL | Minimum bacteriostatic concentration ([3]; strain CR-AB 18-183): >128 µg/mL | Minimum bacteriostatic concentration ([3]; strain CR-AB 18-560): >128 µg/mL | Minimum bacteriostatic concentration ([4]; strain VRE 18-80): 8 µg/mL | Minimum bacteriostatic concentration ([4]; strain VRE 18-94): >128 µg/mL

C/C=C/COC(=O)c1cc(O)c2c(c1)C(=O)c1cccc(O)c1C2=O [Crotonyl alcohol cassic acid ester, (E)-but-2-en-1-yl 4,5-dihydroxy-9,10-dioxo-9,10-dihydroanthracene-2-carboxylate]
Minimum bacteriostatic concentration ([1]; strain MDR-PA 18-174): >128 µg/mL | Minimum bacteriostatic concentration ([1]; strain MDR-PA 18-202): >128 µg/mL | MIC ([2]; Staphylococcus aureus, drug-resistant Gram-positive bacteria MRSA, strain not given): 4 µg/mL (≈ 11.8 µM) | Minimum bacteriostatic concentration ([2]; strain MRSA 18-222): 4 µg/mL | Minimum bacteriostatic concentration ([2]; strain MRSA 18-575): 4 µg/mL | Minimum bacteriostatic concentration ([3]; strain CR-AB 18-183): >128 µg/mL | Minimum bacteriostatic concentration ([3]; strain CR-AB 18-560): >128 µg/mL | Minimum bacteriostatic concentration ([4]; strain VRE 18-80): >128 µg/mL | Minimum bacteriostatic concentration ([4]; strain VRE 18-94): >128 µg/mL

CC=CCO [Crotonyl alcohol, 2-butenol]
Minimum bacteriostatic concentration ([1]; strain MDR-PA 18-174): >128 µg/mL | Minimum bacteriostatic concentration ([1]; strain MDR-PA 18-202): >128 µg/mL | inhibitory effect on drug-resistant bacteria (drug-resistant bacteria): no inhibitory effect | Minimum bacteriostatic concentration ([2]; strain MRSA 18-222): >128 µg/mL | Minimum bacteriostatic concentration ([2]; strain MRSA 18-575): >128 µg/mL | Minimum bacteriostatic concentration ([3]; strain CR-AB 18-183): >128 µg/mL | Minimum bacteriostatic concentration ([3]; strain CR-AB 18-560): >128 µg/mL | Minimum bacteriostatic concentration ([4]; strain VRE 18-80): >128 µg/mL | Minimum bacteriostatic concentration ([4]; strain VRE 18-94): >128 µg/mL

gentamicin
Minimum bacteriostatic concentration ([1]; strain MDR-PA 18-174): 0.0625 µg/mL | Minimum bacteriostatic concentration ([1]; strain MDR-PA 18-202): 0.0625 µg/mL | Minimum bacteriostatic concentration ([2]; strain MRSA 18-222): 128 µg/mL | Minimum bacteriostatic concentration ([2]; strain MRSA 18-575): 2 µg/mL | Minimum bacteriostatic concentration ([3]; strain CR-AB 18-183): >128 µg/mL | Minimum bacteriostatic concentration ([3]; strain CR-AB 18-560): >128 µg/mL | Minimum bacteriostatic concentration ([4]; strain VRE 18-80): 0.0625 µg/mL | Minimum bacteriostatic concentration ([4]; strain VRE 18-94): >128 µg/mL
